Measurements: patent US11938128B2, “Small molecule BAX inhibitors and uses thereof” (Albert Einstein College of Medicine, priority 2017, dated 2024)
Like-named read-outs stand apart in the source and are kept apart here. Values belong to the compound of their own block, whether it stands above or below them.

Tests used:
BAX [1] = molecular target: BAX (Homo sapiens, UniProt Q07812); assay: liposome release assay, tBID-induced BAX activation in liposomal membranes; type: biochemical
Source text: FIG. 8. BAI compounds tested in BAX inhibition assay using tBID-induced BAX activation in liposomal membranes.
These compounds were hypothesized, but never shown, to work through BAX inhibition (19, 20). Accordingly, it was first investigated whether several of these small molecules inhibit BAX-mediated permeabilization of artificial membranes of similar lipid composition to the outer mitochondrial membrane (OMM). A liposome release assay (21), in which liposomes that contain a fluorophore are created, was used. Incorporation of tBID-activated BAX into the liposome membrane stimulates release of the fluorophore, providing a system to study BAX-mediated membrane permeabilization in isolation of other mitochondrial and cellular factors.
IC50 were predicted based on of “Normalized inhibition values” correlated with measured IC50 values.

[2] = molecular target: recombinant, purified BAX (Homo sapiens, UniProt Q07812); assay: BAX binding by 1H-NMR and 15N-1H HSQC NMR; conditions: not shown
Sequence of recombinant, purified BAX (Q07812 whole entry): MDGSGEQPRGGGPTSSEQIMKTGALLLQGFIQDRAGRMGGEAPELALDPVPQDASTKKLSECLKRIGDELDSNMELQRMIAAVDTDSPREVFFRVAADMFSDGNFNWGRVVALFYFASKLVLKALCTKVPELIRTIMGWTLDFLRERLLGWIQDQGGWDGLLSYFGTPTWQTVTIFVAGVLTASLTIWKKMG

[3] = test system: neonatal rat cardiomyocytes (NRCM); assay: hypoxia-induced death of primary neonatal cardiomyocytes (calcein AM / ethidium homodimer); type: cell-based; conditions: for inhibition of hypoxia-induced neonatal cardiomyocyte death: percentage of EthD positive cells
Method: (§1) FIG. 6A-6C. […] Cell death was assessed using calcein AM (alive) and ethidium homodimer (dead) staining. (C) BAI1 inhibits hypoxia-induced loss of inner mitochondrial membrane potential (Δψm) in neonatal cardiomyocytes.
FIG. 20A-20B. […] Quantification of percentage of TUNEL positive cells. […] BAI-1 dose response. Percentage of dead cells represents percentage of ethidium homodimer-1 (EthD) positive cells.
FIG. 21A-21C. BAI-A1, BAI-A2 and BAI-A21 inhibit cardiomyocyte necrotic cell death. NRCM were pre-treated with varying concentrations of BAI-A1 (A), BAI-A2 (B) or BAI-A21 (C) and cultured under normoxic or hypoxic conditions. Percentage of dead cells represents percentage of EthD positive cells.

Adult rat cardiomyocytes = assay: hypoxia/reoxygenation-induced death of adult cardiomyocytes; type: cell-based
Method: as §1
FIG. 22A-22B. […] Percentage of dead cells represents percentage of EthD positive cells.

[4] = plasma protein binding, mouse plasma; type: in vitro ADME
BAX [5] = molecular target: T1, BAX (Mus musculus, UniProt Q07813); assay: BAX activation during MI/R in vivo, 6A7 antibody immunostaining; conditions: 45 min ischemia/6 h reperfusion, 6A7 immunostaining
T1 construct: from tissue; host or cells: heart (myocardium) after 45 min ischemia/6 h reperfusion
T1 sequence (Q07813 whole entry, the tested form may be a part): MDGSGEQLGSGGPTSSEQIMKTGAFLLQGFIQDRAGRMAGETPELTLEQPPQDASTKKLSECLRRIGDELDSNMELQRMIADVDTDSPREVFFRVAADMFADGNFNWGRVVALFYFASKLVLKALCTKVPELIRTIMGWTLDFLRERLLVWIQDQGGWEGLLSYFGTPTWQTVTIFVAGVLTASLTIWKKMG
Method: Accordingly, the ability of BAI-A1 to inhibit BAX activation during MI/R was tested in vivo (FIG. 7). […] The pharmacokinetics of BAI-A1 were measured in the mouse by injecting 1 mg/kg into a cohort of mice and harvesting plasma and heart tissue 0, 1, 6, and 24 h.

[6] = pharmacokinetics of BAI-A1 in the mouse; type: in vivo; conditions: other: injection (type of injection not given), 1 mg/kg
Method: Accordingly, the ability of BAI-A1 to inhibit BAX activation during MI/R was tested in vivo (FIG. 7). […] This was assessed following 45 min ischemia/6 h reperfusion, the time point that BAX is activated maximally in the absence of drug. It was concluded that BAI-A1 can access myocardial cells and is effective at inhibiting BAX activation during MI/R in vivo. The pharmacokinetics of BAI-A1 were measured in the mouse by injecting 1 mg/kg into a cohort of mice and harvesting plasma and heart tissue 0, 1, 6, and 24 h.

[7] = pharmacokinetic properties, half-life in plasma; type: in vivo
BAX [8] = molecular target: T1, BAX; assay: STS-induced BAX translocation to mitochondria (immunostaining of BAX puncta); type: cell-based; conditions: data not shown
Method: A key event in BAX activation is exposure of α helix 9 containing a transmembrane domain that inserts tightly into the outer mitochondrial membrane (OMM). BAX insertion into the OMM can be assessed by treating isolated mitochondria with strong alkali, which separates loosely attached proteins from mitochondria but fails to extract membrane-inserted proteins. […] One important result of BAX conformational activation is its translocation from cytosol to mitochondria. […] Translocation was assessed by immunostaining for mitochondrial BAX puncta. […] (Data not shown.)

[9] = test system: mouse embryonic fibroblasts; assay: TNFα-induced BAX-mediated apoptotic cell death; type: cell-based; conditions: data not shown
[10] = plasma protein binding, rats; type: in vitro ADME; conditions: rat
[11] = BAI-A22 pharmacokinetics in rats, non-compartmental analysis; type: in vivo; conditions: rat, plasma, iv, male Sprague Dawley rats, 1 mg/kg intravenously, NCA
Method: FIG. 11A-11B. BAI-A22 pharmacokinetics. BAI-A22 was injected intravenously in male Sprague Dawley® rats at 1 mg/kg dose and blood plasma and heart tissue were collected at different time points, and drug levels measured by LC-MS/MS. (A) Average BAI-A22 concentrations in blood plasma. (B) Average BAI-A22 concentrations in heart tissue.
Pharmacokinetic parameters from non-compartmental analysis using WinNonLin software. C0: maximum plasma concentration extrapolated to t=0; tmax: time of maximum plasma concentration; t1/2: half-life; MRTlast: mean residence time, calculated to the last observable time point; CL: clearance; Vss: steady state volume of distribution; AUClast: area under the curve, calculated to the last observable time point; AUC∞: area under the curve, extrapolated to infinity. Materials and Methods for the Chemical Syntheses

[12] = test system: mouse embryonic fibroblasts; assay: apoptosis in mouse embryonic fibroblasts (FIG. 18); type: cell-based; conditions: doxorubicin-induced per text, STS or ABT-737 per legend
Source text: FIG. 18. […] Apoptosis was induced with either staurosporine (STS) or pro-apoptotic ABT-737 drug.

[13] = acute doxorubicin heart failure model in mice; type: in vivo, mouse; conditions: doxorubicin 20 mg/kg i.p. single; inhibitor 2 mg/kg i.p. single
[14] = chronic doxorubicin-induced cardiomyopathy mouse model; type: in vivo; conditions: doxorubicin 3 mg/kg IP x8, inhibitor 2 mg/kg
Source text: FIG. 25A-25B. […] (A) Hearts were collected from mice in the chronic doxorubicin model and sectioned to stain for the apoptosis marker, TUNEL. Percentage of TUNEL positive nuclei per field. (B) Hearts were collected from mice in the chronic doxorubicin model and sectioned to immunostain for HMGB1, loss of which indicates necrosis. Percentage of nuclei that lost HMGB1 per field.
Patients typically receive several “cycles” of doxorubicin administered at lower doses. The exact protocol depends on the cancer being treated. For example, some leukemias are treated with 4 cycles of 60 mg/m^2 (which would be the equivalent of 1.5 mg/kg) IV administered every 21-28 days. […] Based on this experience, a chronic protocol was used in which mice receive 3 mg/kg doxorubicin IP every other day×8 doses (i.e. over a two-week period) for a cumulative dose of 24 mg/kg.

[15] = liposome release, minimum of 4 inhibitor concentrations around the IC50, read-out: Measured IC 50/μM
[16] = predicted from normalized inhibition values (5 and 10 μM, normalized to BAI1) correlated with measured IC50 values, read-out: Predicted IC50/μM

Sequence of BAX (Homo sapiens, UniProt Q07812) (Q07812 whole entry): as the sequence (Q07812 whole entry) above

Structure (SMILES): OC(CN1CCN(CCCc2ccccc2)CC1)Cn1c2ccc(Br)cc2c2cc(Br)ccc21 (stereo not drawn) [BAI-3]
inhibition of membrane permeabilization induced by tBID-activated BAX (BAX [1]; FIG. 2): not effective to inhibit tBID-induced BAX activation | fluorophore release by compound alone (BAX [1]; compound alone, without BAX/tBID): do not stimulate fluorophore release

Structure (SMILES): OC(CN1CCNCC1)Cn1c2ccccc2c2ccccc21 (stereo not drawn) [BAI-A1]
IC50 (BAX [1]; [15]): 40 µM | IC50 (BAX [1]; [16]): > 20 µM | BAX binding relative to BAI-1 [2]: less BAX binding than BAI-1 | ability to protect neonatal cardiomyocytes against hypoxia, versus BAI-1 ([3]; not shown): only modestly decreased | inhibition of hypoxia-induced neonatal cardiomyocyte death [3]: inhibit necrosis in cardiomyocytes in a dose-dependent manner | inhibition of adult cardiomyocyte necrosis (Adult rat cardiomyocytes; hypoxia and reoxygenation (H/R)): inhibit necrosis in cardiomyocytes in a dose-dependent manner | ability to protect adult cardiomyocytes against hypoxia/reoxygenation, versus BAI-1 (Adult rat cardiomyocytes; not shown): only modestly decreased | fraction unbound [4]: 0.106 | BAX conformational activation in vivo (BAX [5]): potently blocks BAX conformational activation | half-life ([6]; heart tissue, read-out: half-life in heart tissue (converted)): ~3.5 h | half-life ([6]; plasma, read-out: half-life in plasma (converted)): ~3.5 h | half-life [7]: 3.5 h

Structure (SMILES): OCCN(CCO)CC(O)Cn1c2ccc(Cl)cc2c2cc(Cl)ccc21 (stereo not drawn) [BAI-A9]
IC50 (BAX [1]; [16]): 9.7 µM

Structure (SMILES): OCC(O)Cn1c2ccc(Br)cc2c2cc(Br)ccc21 (stereo not drawn) [BAI-A10]
IC50 (BAX [1]; [16]): 10.8 µM

Structure (SMILES): O=C(O)CCn1c2ccc(Br)cc2c2cc(Br)ccc21 [BAI-A11]
IC50 (BAX [1]; [16]): 10.4 µM

Structure (SMILES): OCCNCC(O)Cn1c2ccc(Br)cc2c2cc(Br)ccc21 (stereo not drawn) [BAI-A12]
IC50 (BAX [1]; [16]): 8.8 µM

Structure (SMILES): CN1CCN(CC(O)CN2c3ccccc3Sc3ccccc32)CC1 (stereo not drawn) [BAI-A13]
IC50 (BAX [1]; [15]): 13 µM | IC50 (BAX [1]; [16]): 13.8 µM

Structure (SMILES): OCCN(CCO)CC(O)CN1c2ccccc2Sc2ccccc21 (stereo not drawn) [BAI-A14]
IC50 (BAX [1]; [16]): 15.3 µM

Continued, in another order:

IC50 (BAX [1]; [15]): 6 µM | IC50 (BAX [1]; [16]): 11.7 µM
Structure (SMILES): OCCN1CCN(CCCN2c3ccccc3Sc3ccccc32)CC1 [BAI-A15]

IC50 (BAX [1]; [15]): 18 µM
Structure (SMILES): OC(CN1CCNCC1)Cn1c2ccc(F)cc2c2cc(F)ccc21 (stereo not drawn) [BAI-A16]

IC50 (BAX [1]; [15]): 27 µM
Structure (SMILES): Cc1ccc2c(c1)c1cc(C)ccc1n2CC(O)CN1CCNCC1 (stereo not drawn) [BAI-A17]

IC50 (BAX [1]; [15]): 15 µM
Structure (SMILES): OC(CN1CCNCC1)Cn1c2ccc(C(F)(F)F)cc2c2cc(C(F)(F)F)ccc21 (stereo not drawn) [BAI-A18]

IC50 (BAX [1]; [15]): 26 µM | BAX conformational activation in vivo (BAX [5]): inhibition of BAX activation in vivo
Structure (SMILES): Cc1ccc(N(CC(O)CN2CCNCC2)c2ccc(C)cc2)cc1 (stereo not drawn) [BAI-A19]
inhibition of hypoxia-induced neonatal cardiomyocyte death [3]: potently inhibits primary neonatal cardiomyocyte death induced by hypoxia

IC50 (BAX [1]; [15]): > 100 µM
Structure (SMILES): Cc1cn(CC(O)CN2CCNCC2)c2ccccc12 (stereo not drawn) [BAI-A20]
inhibition of hypoxia-induced neonatal cardiomyocyte death [3]: does not

IC50 (BAX [1]; [15]): 4.5 µM
Structure (SMILES): OC(CN1CCNCC1)CN(c1ccc(Br)cc1)c1ccc(Br)cc1 (stereo not drawn) [BAI-A21]
inhibition of hypoxia-induced neonatal cardiomyocyte death [3]: inhibit necrosis in cardiomyocytes in a dose-dependent manner

IC50 (BAX [1]; [15]): 11 µM | BAX translocation to the mitochondria (BAX [8]): A similar result was observed | fraction unbound [10]: 0.044 | AUC(0-t) ([11]; parameter and unit are drawings, read-out: AUClast: area under the curve, calculated to the last observable time point): 390 ± 42.7 ng·h/mL | MRT last ([11]; parameter and unit are drawings, read-out: MRTlast: mean residence time, calculated to the last observable time point): 2.15 h | Tmax ([11]; parameter and unit are drawings, read-out: tmax: time of maximum plasma concentration): 0 h | Vd ([11]; parameter is a drawing, read-out: Vss: steady state volume of distribution): 10.5 L/kg | AUC(0-inf) ([11]; unit is a drawing): 524 ng·h/mL | Cmax ([11]; unit is a drawing): 318 ng/mL | clearance ([11]; unit is a drawing): 31.8 mL/min/kg | half-life ([11]; unit is a drawing): 5.04 h | C0 ([11]; unit is a drawing, read-out: C0: maximum plasma concentration extrapolated to t=0): 318 ng/mL | half-life [7]: 5 h
Structure (SMILES): OC(CN1CCNCC1)CN(c1ccccc1)c1ccc(Br)cc1 (stereo not drawn) [BAI-A22, 1-((4-bromophenyl)(phenyl)amino)-3-(piperazin-1-yl)propan-2-ol]
nuclear fragmentation [9]: Nuclear fragmentation was also inhibited | inhibition of hypoxia-induced neonatal cardiomyocyte death [3]: potently inhibits primary neonatal cardiomyocyte death induced by hypoxia | apoptosis in mouse embryonic fibroblasts [12]: inhibits doxorubicin-induced apoptosis in mouse embryonic fibroblasts | heart function (ejection fraction) in doxorubicin-treated mice [13]: therapeutically effective | cardiac dysfunction (fractional shortening, ejection fraction, systolic wall thickening) [14]: significantly protected the heart from cardiac dysfunction
